Source: ChEMBL document CHEMBL4699433, “Rational design, synthesis and testing of novel tricyclic topoisomerase inhibitors for the treatment of bacterial infections part 2” (RSC Med Chem, 2020)
In brackets after ≈: the same amount, converted by molar mass. One block for each molecule: values may come before it.

Key:
[1] = tested on: Streptococcus pneumoniae; assay: Antibacterial activity against Streptococcus pneumoniae ATCC 49619 assessed as reduction in bacterial growth by CLSI based broth microdilution method; assay type: functional
[2] = tested on: Staphylococcus aureus; assay: Antibacterial activity against VAN resistant methicillin- resistant Staphylococcus aureus VRS8 assessed as reduction in bacterial growth by CLSI based broth microdilution method; assay type: functional
[3] = tested on: Staphylococcus aureus; assay: Antibacterial activity against LZD-resistant methicillin-resistant Staphylococcus aureus NRS271 assessed as reduction in bacterial growth by CLSI based broth microdilution method; assay type: functional
[4] = tested on: Streptococcus pyogenes; assay: Antibacterial activity against wild type Streptococcus pyogenes ATCC 19615 assessed as reduction in bacterial growth by CLSI based broth microdilution method; assay type: functional
[5] = tested on: Staphylococcus epidermidis; assay: Antibacterial activity against MRSE AMG-, ERY-resistant Staphylococcus epidermidis NRS101 assessed as reduction in bacterial growth by CLSI based broth microdilution method; assay type: functional
[6] = tested on: Escherichia coli; assay: Antibacterial activity against Escherichia coli ATCC 25922 assessed as reduction in bacterial growth by CLSI based broth microdilution method; assay type: functional
[7] = tested on: Staphylococcus aureus; assay: Antibacterial activity against Staphylococcus aureus ATCC 43300 assessed as reduction in bacterial growth by CLSI based broth microdilution method; assay type: functional
[8] = molecular target: Cytochrome P450 1A2 (Homo sapiens, UniProt P05177); assay: Inhibition of CYP1A2 (unknown origin); assay type: ADME
Sequence of Cytochrome P450 1A2 (P05177 whole entry): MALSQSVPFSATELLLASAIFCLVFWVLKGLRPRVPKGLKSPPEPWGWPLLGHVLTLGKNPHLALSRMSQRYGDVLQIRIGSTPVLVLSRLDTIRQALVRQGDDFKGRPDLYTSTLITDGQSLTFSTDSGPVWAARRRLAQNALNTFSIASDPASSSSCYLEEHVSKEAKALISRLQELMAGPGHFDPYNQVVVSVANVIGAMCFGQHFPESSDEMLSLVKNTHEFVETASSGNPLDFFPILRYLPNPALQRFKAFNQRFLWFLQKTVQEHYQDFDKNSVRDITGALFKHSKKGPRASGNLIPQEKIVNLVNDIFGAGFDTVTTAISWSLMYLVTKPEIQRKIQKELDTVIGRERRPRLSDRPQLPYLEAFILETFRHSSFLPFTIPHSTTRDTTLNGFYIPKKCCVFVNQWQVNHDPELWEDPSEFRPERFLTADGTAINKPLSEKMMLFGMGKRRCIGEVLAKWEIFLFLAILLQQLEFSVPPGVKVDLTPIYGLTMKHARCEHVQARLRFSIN

[9] = tested on: Staphylococcus aureus; assay: Antibacterial activity against LZD-resistant, methicillin-resistant Staphylococcus aureus NRS127 assessed as reduction in bacterial growth by CLSI based broth microdilution method; assay type: functional
[10] = tested on: Enterococcus faecalis; assay: Antibacterial activity against wild type Enterococcus faecalis ATCC 29212 assessed as reduction in bacterial growth by CLSI based broth microdilution method; assay type: functional
[11] = Efflux ratio of permeability in human Caco2 cells; assay type: ADME, cell-based; details: Caco-2
[12] = molecular target: Voltage-gated inwardly rectifying potassium channel KCNH2 (Homo sapiens, UniProt Q12809); assay: Inhibition of human ERG by patch clamp assay
Sequence of Voltage-gated inwardly rectifying potassium channel KCNH2 (Q12809 whole entry): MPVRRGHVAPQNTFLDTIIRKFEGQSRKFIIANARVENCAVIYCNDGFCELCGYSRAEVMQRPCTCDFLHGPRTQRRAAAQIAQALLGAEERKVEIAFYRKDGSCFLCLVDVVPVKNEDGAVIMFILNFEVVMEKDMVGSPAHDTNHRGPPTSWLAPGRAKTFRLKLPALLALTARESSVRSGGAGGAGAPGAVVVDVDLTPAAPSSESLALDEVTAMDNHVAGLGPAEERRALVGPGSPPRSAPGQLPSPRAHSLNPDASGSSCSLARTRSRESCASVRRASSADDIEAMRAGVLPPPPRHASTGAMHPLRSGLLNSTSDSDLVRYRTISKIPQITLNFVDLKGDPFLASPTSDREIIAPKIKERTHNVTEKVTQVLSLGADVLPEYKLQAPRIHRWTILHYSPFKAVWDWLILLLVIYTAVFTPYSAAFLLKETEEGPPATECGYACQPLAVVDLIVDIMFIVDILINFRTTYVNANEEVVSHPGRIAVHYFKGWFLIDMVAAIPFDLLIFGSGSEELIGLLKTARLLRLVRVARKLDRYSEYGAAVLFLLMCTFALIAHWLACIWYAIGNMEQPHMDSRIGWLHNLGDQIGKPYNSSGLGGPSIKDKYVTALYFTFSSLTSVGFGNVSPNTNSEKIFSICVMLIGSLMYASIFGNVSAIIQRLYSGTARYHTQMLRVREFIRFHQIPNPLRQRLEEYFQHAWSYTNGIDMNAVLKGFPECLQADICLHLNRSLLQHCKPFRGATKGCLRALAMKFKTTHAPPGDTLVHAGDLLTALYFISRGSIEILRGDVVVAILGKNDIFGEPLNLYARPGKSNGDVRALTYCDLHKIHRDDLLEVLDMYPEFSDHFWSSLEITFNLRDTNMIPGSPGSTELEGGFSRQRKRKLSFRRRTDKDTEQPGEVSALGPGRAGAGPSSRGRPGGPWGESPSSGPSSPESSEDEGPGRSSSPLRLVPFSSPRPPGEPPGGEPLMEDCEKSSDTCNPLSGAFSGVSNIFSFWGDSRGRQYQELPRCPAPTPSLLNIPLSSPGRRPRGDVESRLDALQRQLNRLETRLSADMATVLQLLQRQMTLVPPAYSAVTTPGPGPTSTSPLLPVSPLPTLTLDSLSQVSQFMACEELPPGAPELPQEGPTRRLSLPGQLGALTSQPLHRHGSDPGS

[13] = Cytotoxicity against human HepG2 cells; assay type: cell-based
[14] = tested on: Staphylococcus aureus; assay: Antibacterial activity against AMG-, QAC-, TMP- resistant methicillin- resistant Staphylococcus aureus NRS106 assessed as reduction in bacterial growth by CLSI based broth microdilution method; assay type: functional
[15] = tested on: Staphylococcus aureus; assay: Antibacterial activity against MUP resistant (RN4220 + pGO400), methicillin-resistant Staphylococcus aureus NRS107 assessed as reduction in bacterial growth by CLSI based broth microdilution method; assay type: functional
[16] = tested on: Enterococcus faecium; assay: Antibacterial activity against wild type Enterococcus faecium ATCC 19434 assessed as reduction in bacterial growth by CLSI based broth microdilution method; assay type: functional
[17] = tested on: Staphylococcus aureus; assay: Antibacterial activity against wild type methicillin-sensitive Staphylococcus aureus ATCC 29213 assessed as reduction in bacterial growth by CLSI based broth microdilution method; assay type: functional
[18] = molecular target: Topoisomerase IV (Staphylococcus aureus, UniProt P0C1S7+P0C1U9); assay: Inhibition of Staphylococcus aureus topoisomerase IV using kDNA as substrate incubated for 30 mins by ethidium bromide staining based gel electrophoresis analysis; assay type: protein-complex assay
[19] = molecular target: Cytochrome P450 2C19 (Homo sapiens, UniProt P33261); assay: Inhibition of CYP2C19 (unknown origin); assay type: ADME
Sequence of Cytochrome P450 2C19 (P33261 whole entry): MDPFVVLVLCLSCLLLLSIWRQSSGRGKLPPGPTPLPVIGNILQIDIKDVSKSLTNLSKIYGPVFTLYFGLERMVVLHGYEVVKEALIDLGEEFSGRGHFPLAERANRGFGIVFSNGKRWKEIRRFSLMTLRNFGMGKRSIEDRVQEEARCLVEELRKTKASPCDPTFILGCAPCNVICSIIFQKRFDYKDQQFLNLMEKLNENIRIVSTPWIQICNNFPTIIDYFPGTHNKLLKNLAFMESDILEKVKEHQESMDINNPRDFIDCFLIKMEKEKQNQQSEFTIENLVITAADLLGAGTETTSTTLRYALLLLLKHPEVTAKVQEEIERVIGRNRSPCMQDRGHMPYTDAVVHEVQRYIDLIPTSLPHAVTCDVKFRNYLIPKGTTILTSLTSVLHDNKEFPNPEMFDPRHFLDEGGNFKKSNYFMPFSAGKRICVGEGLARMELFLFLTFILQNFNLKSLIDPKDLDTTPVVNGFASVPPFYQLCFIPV

[20] = tested on: Staphylococcus aureus; assay: Antibacterial activity against CA-MRSA ERY-, TET-resistant, FQ Int resistant (USA300 LAC) Staphylococcus aureus NRS384 assessed as reduction in bacterial growth by CLSI based broth microdilution method; assay type: functional
[21] = molecular target: DNA gyrase (Staphylococcus aureus, UniProt P0A0K8+P20831); assay: Inhibition of Staphylococcus aureus DNA gyrase using relaxed pBR322 as substrate incubated for 30 mins by ethidium bromide staining based gel electrophoresis analysis; assay type: protein-complex assay
[22] = molecular target: Voltage-dependent L-type calcium channel subunit alpha-1C (Homo sapiens, UniProt Q13936); assay: Inhibition of Cav1.2 (unknown origin) by patch clamp assay
[23] = Kinetic solubility of compound at pH 7.4; assay type: physicochemical; details: buffer, read-out: Kinetic_solubility
[24] = tested on: Staphylococcus aureus; assay: Antibacterial activity against FQ-resistant methicillin-resistant Staphylococcus aureus NRS74 assessed as reduction in bacterial growth by CLSI based broth microdilution method; assay type: functional
[25] = tested on: Staphylococcus epidermidis; assay: Antibacterial activity against wild type Staphylococcus epidermidis ATCC 12228 assessed as reduction in bacterial growth by CLSI based broth microdilution method; assay type: functional
[26] = tested on: Staphylococcus aureus; assay: Antibacterial activity against Staphylococcus aureus VRS1 assessed as reduction in bacterial growth by CLSI based broth microdilution method; assay type: functional
[27] = tested on: TK6; assay: Genotoxicity in human TK6 cells at 200 uM in absence of S9 fraction by BlueScreen assay; assay type: toxicity, cell-based; details: tk6, 200 µM
[28] = molecular target: Sodium channel protein type 5 subunit alpha (Homo sapiens, UniProt Q14524); assay: Inhibition of Nav1.5 (unknown origin) by patch clamp assay
Sequence of Sodium channel protein type 5 subunit alpha (Q14524 whole entry): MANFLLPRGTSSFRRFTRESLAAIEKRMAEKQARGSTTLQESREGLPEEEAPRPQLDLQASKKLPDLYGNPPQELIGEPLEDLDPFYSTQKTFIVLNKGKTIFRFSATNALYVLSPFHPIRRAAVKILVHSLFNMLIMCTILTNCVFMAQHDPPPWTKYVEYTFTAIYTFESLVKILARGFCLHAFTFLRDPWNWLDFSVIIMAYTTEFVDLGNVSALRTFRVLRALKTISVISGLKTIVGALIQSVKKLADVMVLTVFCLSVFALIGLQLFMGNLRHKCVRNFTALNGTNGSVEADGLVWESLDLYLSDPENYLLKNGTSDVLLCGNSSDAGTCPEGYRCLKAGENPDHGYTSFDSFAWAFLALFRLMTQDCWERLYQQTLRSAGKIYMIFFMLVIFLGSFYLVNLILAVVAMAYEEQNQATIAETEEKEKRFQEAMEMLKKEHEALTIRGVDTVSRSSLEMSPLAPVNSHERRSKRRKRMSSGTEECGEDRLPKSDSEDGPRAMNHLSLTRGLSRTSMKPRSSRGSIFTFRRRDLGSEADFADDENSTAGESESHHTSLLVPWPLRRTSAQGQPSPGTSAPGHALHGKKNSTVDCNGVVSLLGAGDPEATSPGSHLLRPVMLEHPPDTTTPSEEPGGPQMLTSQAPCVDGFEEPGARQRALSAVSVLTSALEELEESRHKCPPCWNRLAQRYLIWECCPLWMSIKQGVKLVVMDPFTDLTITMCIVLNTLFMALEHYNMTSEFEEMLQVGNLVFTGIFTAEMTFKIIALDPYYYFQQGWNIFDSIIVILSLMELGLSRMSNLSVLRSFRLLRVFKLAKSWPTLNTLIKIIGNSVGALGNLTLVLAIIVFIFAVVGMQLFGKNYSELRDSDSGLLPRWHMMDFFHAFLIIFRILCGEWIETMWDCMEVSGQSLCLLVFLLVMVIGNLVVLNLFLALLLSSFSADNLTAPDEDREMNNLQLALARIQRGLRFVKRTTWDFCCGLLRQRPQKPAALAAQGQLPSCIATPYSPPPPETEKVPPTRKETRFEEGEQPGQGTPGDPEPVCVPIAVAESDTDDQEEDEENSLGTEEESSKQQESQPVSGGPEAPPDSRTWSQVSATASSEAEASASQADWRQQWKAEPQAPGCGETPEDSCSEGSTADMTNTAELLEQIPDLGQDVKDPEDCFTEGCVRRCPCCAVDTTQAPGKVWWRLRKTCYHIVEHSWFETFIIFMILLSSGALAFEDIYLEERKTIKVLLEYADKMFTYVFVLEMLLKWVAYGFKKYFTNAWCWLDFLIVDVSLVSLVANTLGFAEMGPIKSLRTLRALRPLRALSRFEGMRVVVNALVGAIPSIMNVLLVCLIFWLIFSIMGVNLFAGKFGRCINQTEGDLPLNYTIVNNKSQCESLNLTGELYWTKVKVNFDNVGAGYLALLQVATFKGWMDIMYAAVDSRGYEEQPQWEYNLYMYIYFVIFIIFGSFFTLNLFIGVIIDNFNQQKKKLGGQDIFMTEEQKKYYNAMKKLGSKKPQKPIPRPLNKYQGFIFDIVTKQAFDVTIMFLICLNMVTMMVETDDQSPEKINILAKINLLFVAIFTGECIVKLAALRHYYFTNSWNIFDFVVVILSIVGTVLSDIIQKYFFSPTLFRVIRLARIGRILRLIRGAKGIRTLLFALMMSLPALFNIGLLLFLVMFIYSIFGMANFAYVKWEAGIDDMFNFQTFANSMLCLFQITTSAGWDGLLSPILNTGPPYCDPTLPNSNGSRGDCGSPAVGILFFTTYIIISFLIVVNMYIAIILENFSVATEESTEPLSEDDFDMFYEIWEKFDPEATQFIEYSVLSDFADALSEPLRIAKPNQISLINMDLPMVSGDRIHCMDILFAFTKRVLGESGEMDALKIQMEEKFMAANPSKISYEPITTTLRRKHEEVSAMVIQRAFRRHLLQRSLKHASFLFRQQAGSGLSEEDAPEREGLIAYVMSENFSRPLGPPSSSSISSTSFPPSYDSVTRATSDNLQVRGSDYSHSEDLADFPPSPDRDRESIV

[29] = tested on: Staphylococcus aureus; assay: Antibacterial activity against AMG-resistant, methicillin-resistant Staphylococcus aureus NRS108 assessed as reduction in bacterial growth by CLSI based broth microdilution method; assay type: functional
[30] = Protein binding in human plasma assessed as free fraction; assay type: ADME, cell-free
[31] = Intrinsic clearance in human hepatocytes assessed per 10^6 cells; assay type: ADME, cell-based, Hepatocyte; details: read-out: CLH
[32] = tested on: Neisseria gonorrhoeae; assay: Antibacterial activity against wild type Neisseria gonorrhoeae ATCC 700825 assessed as reduction in bacterial growth by agar dilution method; assay type: functional
[33] = tested on: Staphylococcus aureus; assay: Antibacterial activity against methicillin-resistant Staphylococcus aureus N315 NRS70 assessed as reduction in bacterial growth by CLSI based broth microdilution method; assay type: functional
[34] = tested on: Staphylococcus aureus; assay: Antibacterial activity against Staphylococcus aureus clinical isolate assessed as reduction in bacterial growth by CLSI based broth microdilution method; assay type: functional
[35] = tested on: Neisseria gonorrhoeae; assay: Antibacterial activity against wild-type Neisseria gonorrhoeae ATCC 49226 assessed as reduction in bacterial growth by agar dilution method; assay type: functional
[36] = tested on: Staphylococcus aureus; assay: Antibacterial activity against AMG- and TET-resistant (Mu50) GyrA (S84L,E409L), GrlA (S80F), methicillin-resistant Staphylococcus aureus NRS1 assessed as reduction in bacterial growth by CLSI based broth microdilution method; assay type: functional
[37] = tested on: TK6; assay: Genotoxicity in human TK6 cells at 200 uM in presence of S9 fraction by BlueScreen assay; assay type: toxicity, cell-based; details: s9, 200 µM
[38] = tested on: Staphylococcus aureus; assay: Antibacterial activity against COL-resistant, methicillin-resistant Staphylococcus aureus NRS100 assessed as reduction in bacterial growth by CLSI based broth microdilution method; assay type: functional
[39] = tested on: Staphylococcus aureus; assay: Antibacterial activity against FQ-resistant, methicillin-resistant Staphylococcus aureus NRS482 assessed as reduction in bacterial growth by CLSI based broth microdilution method; assay type: functional
[40] = molecular target: Cytochrome P450 3A4 (Homo sapiens, UniProt P08684); assay: Inhibition of CYP3A4 (unknown origin); assay type: ADME
[41] = Apparent permeability in human Caco2 cells; assay type: ADME, cell-based; details: Caco-2
[42] = molecular target: Cytochrome P450 2C9 (Homo sapiens, UniProt P11712); assay: Inhibition of CYP2C9 (unknown origin); assay type: ADME
[43] = tested on: Enterococcus faecium; assay: Antibacterial activity against VAN-resistant Enterococcus faecium ATCC 700221 assessed as reduction in bacterial growth by CLSI based broth microdilution method; assay type: functional
[44] = molecular target: Cytochrome P450 2D6 (Homo sapiens, UniProt P10635); assay: Inhibition of CYP2D6 (unknown origin); assay type: ADME
Sequence of Cytochrome P450 2D6 (P10635 whole entry): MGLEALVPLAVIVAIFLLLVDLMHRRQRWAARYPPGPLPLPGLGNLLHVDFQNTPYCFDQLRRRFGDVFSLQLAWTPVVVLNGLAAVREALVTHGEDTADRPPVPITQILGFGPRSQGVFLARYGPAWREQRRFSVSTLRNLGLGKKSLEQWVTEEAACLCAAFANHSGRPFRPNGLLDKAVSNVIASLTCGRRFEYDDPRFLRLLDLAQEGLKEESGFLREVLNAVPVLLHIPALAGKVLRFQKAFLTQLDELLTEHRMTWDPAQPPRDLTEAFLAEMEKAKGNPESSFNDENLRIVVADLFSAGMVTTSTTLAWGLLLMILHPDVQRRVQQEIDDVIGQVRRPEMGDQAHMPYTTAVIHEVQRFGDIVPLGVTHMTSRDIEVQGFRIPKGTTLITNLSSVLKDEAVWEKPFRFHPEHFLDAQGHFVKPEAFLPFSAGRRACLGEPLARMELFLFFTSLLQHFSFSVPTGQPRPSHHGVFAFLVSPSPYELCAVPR

[45] = tested on: Haemophilus influenzae; assay: Antibacterial activity against Haemophilus influenzae ATCC 49247 assessed as reduction in bacterial growth by CLSI based broth microdilution method; assay type: functional
[46] = Thermodynamic solubility of the compound; assay type: physicochemical; details: read-out: Therm_solubility

Structure (SMILES): Cc1nc2c(=O)n(C3CC3)c3c(Cl)c(N4CC[C@@H]([C@H](C)N)C4)c(F)cc3c2o1
MIC [1]: 0.015 µg/mL (≈ 0.037 µM)
MIC [2]: 0.5 µg/mL (≈ 1.23 µM)
MIC [3]: 0.5 µg/mL (≈ 1.23 µM)
MIC [4]: 0.015 µg/mL (≈ 0.037 µM)
MIC [5]: 1 µg/mL (≈ 2.47 µM)
MIC [6]: 0.5 µg/mL (≈ 1.23 µM)
MIC [7]: 0.12 µg/mL (≈ 0.296 µM)
IC50 [8]: 30 µM
MIC [9]: 0.5 µg/mL (≈ 1.23 µM)
MIC [10]: 0.12 µg/mL (≈ 0.296 µM)
efflux ratio [11]: 2.2
IC50 [12]: 28.7 µM
CC50 [13]: 32 µg/mL (≈ 79 µM)
MIC [14]: 0.12 µg/mL (≈ 0.296 µM)
MIC [15]: 0.12 µg/mL
MIC [16]: 8 µg/mL (≈ 19.8 µM)
MIC [17]: 0.06 µg/mL (≈ 0.148 µM)
IC50 [18]: 6.1 µM
IC50 [19]: 30 µM
MIC [20]: 0.12 µg/mL (≈ 0.296 µM)
IC50 [21]: 1820 nM
IC50 [22]: 93.6 µM
solubility kinetic [23]: > 100 µM
MIC [24]: 0.12 µg/mL (≈ 0.296 µM)
MIC [25]: 0.06 µg/mL (≈ 0.148 µM)
MIC [26]: 0.5 µg/mL (≈ 1.23 µM)
Activity [27]: Non-Toxic
IC50 [28]: 21.5 µM
MIC [29]: 0.12 µg/mL (≈ 0.296 µM)
fraction unbound [30]: 0.244
hepatocyte CLint [31]: 3 µL/min/1e6 cells
MIC [32]: 0.03 µg/mL (≈ 0.0741 µM)
MIC [33]: 0.06 µg/mL (≈ 0.148 µM)
MIC90 [34]: 0.5 µg/mL (≈ 1.23 µM)
MIC [35]: 0.12 µg/mL (≈ 0.296 µM)
MIC [36]: 0.25 µg/mL (≈ 0.617 µM)
Activity [37]: Toxic
MIC [38]: 0.12 µg/mL (≈ 0.296 µM)
MIC [39]: 0.12 µg/mL (≈ 0.296 µM)
IC50 [40]: 17.5 µM
Papp [41]: 20.7 ×10⁻⁶ cm/s
IC50 [42]: 16.4 µM
MIC [43]: 8 µg/mL (≈ 19.8 µM)
IC50 [44]: 30 µM
MIC [45]: 1 µg/mL (≈ 2.47 µM)

Structure (SMILES): Cc1nc2c(=O)n3c4c(c(N5CCC(CN)C5)c(F)cc4c2o1)OC[C@H]3C (stereo partly drawn)
MIC [1]: 128 µg/mL (≈ 344 µM)
MIC [6]: 64 µg/mL (≈ 172 µM)
MIC [17]: 64 µg/mL (≈ 172 µM)
MIC [45]: 128 µg/mL (≈ 344 µM)

Structure (SMILES): Cc1nc2c(=O)n(C3CC3)c3c(Cl)c(N4CCNCC4)c(F)cc3c2o1
MIC [1]: 4 µg/mL (≈ 10.6 µM)
MIC [6]: 0.5 µg/mL (≈ 1.33 µM)
solubility thermodynamic [46]: 885 µg/mL (≈ 2350 µM)
MIC [17]: 0.25 µg/mL (≈ 0.663 µM)
MIC [45]: 0.5 µg/mL (≈ 1.33 µM)

More lines, now with the values ahead:

MIC [1]: 0.25 µg/mL (≈ 0.617 µM)
MIC [6]: 1 µg/mL (≈ 2.47 µM)
solubility thermodynamic [46]: 1180 µg/mL (≈ 2920 µM)
MIC [17]: 0.25 µg/mL (≈ 0.617 µM)
MIC [45]: 1 µg/mL (≈ 2.47 µM)
Structure (SMILES): CNCC1CCN(c2c(F)cc3c4oc(C)nc4c(=O)n(C4CC4)c3c2Cl)C1 (stereo not drawn)

MIC [1]: 0.5 µg/mL (≈ 1.34 µM)
MIC [6]: 2 µg/mL (≈ 5.37 µM)
MIC [17]: 0.5 µg/mL (≈ 1.34 µM)
MIC [45]: 4 µg/mL (≈ 10.7 µM)
Structure (SMILES): Cc1nc2c(=O)n3c4c(c(N5CCC(CN)C5)c(F)cc4c2o1)OC[C@@H]3C (stereo partly drawn)

MIC [1]: 0.5 µg/mL (≈ 1.28 µM)
MIC [6]: 0.5 µg/mL (≈ 1.28 µM)
solubility thermodynamic [46]: 922 µg/mL (≈ 2360 µM)
MIC [17]: 0.25 µg/mL (≈ 0.64 µM)
MIC [45]: 1 µg/mL (≈ 2.56 µM)
Structure (SMILES): Cc1nc2c(=O)n(C3CC3)c3c(Cl)c(N4CCC(N)CC4)c(F)cc3c2o1
